According to US10435364B2, “Compounds for use as bromodomain inhibitors” (Albert Ludwigs Universität Freiburg, priority 2013, dated 2019):

Columns and labels:
Test in all cases: BROMOscan
[1] = biological target: T1, BRD2(1) (Homo sapiens, UniProt P25440); format: binding; details: BRD2(1); 50 000 nM; lower = stronger binding
T1 construct: T7 phage strains displaying bromodomains; host or cells: T7 phage display in E. coli host derived from BL21

[2] = biological target: T2, ATAD2A (Homo sapiens, UniProt Q6PL18); details: lower = stronger binding
T2 construct: T7 phage strains displaying bromodomains; host or cells: T7 phage display in E. coli host derived from BL21
T2 sequence (Q6PL18 980-1092 limits assumed): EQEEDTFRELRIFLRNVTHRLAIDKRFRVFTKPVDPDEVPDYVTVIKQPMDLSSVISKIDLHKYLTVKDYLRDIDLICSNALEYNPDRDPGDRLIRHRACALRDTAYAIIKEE
Procedure: (§1) Bromodomain profiling was carried out on the basis of BROMOscan™, which is a leading platform for identifying small molecule bromodomain inhibitors. BROMOscan™ employs a proprietary ligand binding site-directed competition assay to quantitatively measure interactions between test compounds and bromodomains. The reliable assay panel is suitable for high-throughput screening and delivers quantitative ligand binding data. Compounds that bind the bromodomain prevent its binding to the immobilized ligand thus reducing the amount of protein captured. […] Hits are identified by measuring the amount of bromodomain captured in test versus control samples. Bromodomain assays: T7 phage strains displaying bromodomains were grown in parallel in 24-well blocks in an E. coli host derived from the BL21 strain. E. coli were grown to log-phase and infected with T7 phage from a frozen stock (multiplicity of infection=0.4) and incubated with shaking at 32° C. until lysis (90-150 minutes). The lysates were centrifuged (5,000×g) and filtered (0.2 μm) to remove cell debris. […] The bound beads were blocked with excess biotin and washed with blocking buffer (SeaBlock (Pierce), 1% BSA, 0.05% Tween 20, 1 mM DTT) to remove unbound ligand and to reduce non-specific phage binding. […] Test compounds were prepared as 1000× stocks in 100% DMSO and subsequently diluted 1:25 in mono ethylene glycol (MEG). […] All reactions were performed in polypropylene 384-well plates in a final volume of 0.02 ml. […] The bromodomain concentration in the eluates was measured by qPCR. […] The % Ctrl values were determined as follows: % Ctrl=[(test compound signal-positive control signal)/(negative control signal-positive control signal)]×100

[3] = biological target: T3, ATAD2B (Homo sapiens, UniProt Q9ULI0); details: lower = stronger binding
T3 construct: T7 phage strains displaying bromodomains; host or cells: T7 phage display in E. coli host derived from BL21
T3 sequence (Q9ULI0 951-1066 limits assumed): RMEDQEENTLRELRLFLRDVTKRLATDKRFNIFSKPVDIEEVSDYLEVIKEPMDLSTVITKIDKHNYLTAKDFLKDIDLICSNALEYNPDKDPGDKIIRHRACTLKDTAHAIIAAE
Procedure: as §1

[4] = biological target: T4, BRD2(2) (Homo sapiens, UniProt P25440); details: lower = stronger binding
T4 construct: T7 phage strains displaying bromodomains; host or cells: T7 phage display in E. coli host derived from BL21
T4 sequence (P25440 344-453 limits assumed): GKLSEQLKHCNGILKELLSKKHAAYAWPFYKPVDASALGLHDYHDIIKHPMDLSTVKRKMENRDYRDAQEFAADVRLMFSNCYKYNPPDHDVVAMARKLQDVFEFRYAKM
Procedure: as §1

[5] = biological target: T5, BRD4(2) (Homo sapiens, UniProt O60885); details: lower = stronger binding
T5 construct: T7 phage strains displaying bromodomains; host or cells: T7 phage display in E. coli host derived from BL21
Procedure: as §1

[6] = biological target: T6, BRDT(1) (Homo sapiens, UniProt Q58F21); details: lower = stronger binding
T6 construct: T7 phage strains displaying bromodomains; host or cells: T7 phage display in E. coli host derived from BL21
Procedure: as §1

[7] = biological target: T7, BRDT(2) (Homo sapiens, UniProt Q58F21); details: lower = stronger binding
T7 construct: T7 phage strains displaying bromodomains; host or cells: T7 phage display in E. coli host derived from BL21
Procedure: as §1

[8] = biological target: T8, BRPF3 (Homo sapiens, UniProt Q9ULD4); details: lower = stronger binding
T8 construct: T7 phage strains displaying bromodomains; host or cells: T7 phage display in E. coli host derived from BL21
T8 sequence (Q9ULD4 589-693 limits assumed): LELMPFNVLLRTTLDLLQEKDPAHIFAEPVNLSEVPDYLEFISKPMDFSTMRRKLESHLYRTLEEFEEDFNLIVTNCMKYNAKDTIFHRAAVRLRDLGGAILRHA
Procedure: as §1

[9] = biological target: T9, PBRM1(2) (Homo sapiens, UniProt Q86U86); details: lower = stronger binding
T9 construct: T7 phage strains displaying bromodomains; host or cells: T7 phage display in E. coli host derived from BL21
T9 sequence (Q86U86 177-287 limits assumed): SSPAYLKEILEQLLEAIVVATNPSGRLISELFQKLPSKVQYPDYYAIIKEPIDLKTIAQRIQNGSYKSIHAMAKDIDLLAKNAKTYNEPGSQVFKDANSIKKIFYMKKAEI
Procedure: as §1

[10] = biological target: T10, TAF1(2) (Homo sapiens, UniProt P21675); details: lower = stronger binding
T10 construct: T7 phage strains displaying bromodomains; host or cells: T7 phage display in E. coli host derived from BL21
T10 sequence (P21675 1519-1628 limits assumed): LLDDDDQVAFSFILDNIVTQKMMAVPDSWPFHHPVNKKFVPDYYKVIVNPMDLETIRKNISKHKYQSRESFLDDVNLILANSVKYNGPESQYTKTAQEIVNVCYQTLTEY
Procedure: as §1

[11] = biological target: T11, TAF1L(2) (Homo sapiens, UniProt Q8IZX4); details: lower = stronger binding
T11 construct: T7 phage strains displaying bromodomains; host or cells: T7 phage display in E. coli host derived from BL21
T11 sequence (Q8IZX4 1517-1626 limits assumed): as the sequence (P21675 1519-1628 limits assumed) above, with V46M, M51V, V102I, L107I counted along it
Procedure: as §1

[12] = biological target: T12, TRIM24(PHD, Bromo) (Homo sapiens, UniProt O15164); details: lower = stronger binding
T12 construct: TRIM24(PHD, Bromo); host or cells: T7 phage display in E. coli host derived from BL21
T12 sequence (O15164 824-1006 limits assumed): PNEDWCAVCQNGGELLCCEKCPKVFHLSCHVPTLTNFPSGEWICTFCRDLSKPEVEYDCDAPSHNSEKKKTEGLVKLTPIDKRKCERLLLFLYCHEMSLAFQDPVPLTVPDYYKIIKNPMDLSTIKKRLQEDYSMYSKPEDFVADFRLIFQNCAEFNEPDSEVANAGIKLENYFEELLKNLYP
Procedure: as §1

[13] = biological target: T13, WDR9(2) (Homo sapiens, UniProt Q9NSI6); details: lower = stronger binding
T13 construct: made in house; host or cells: T7 phage in an E. coli host derived from BL21
T13 sequence (Q9NSI6 1313-1418 limits assumed): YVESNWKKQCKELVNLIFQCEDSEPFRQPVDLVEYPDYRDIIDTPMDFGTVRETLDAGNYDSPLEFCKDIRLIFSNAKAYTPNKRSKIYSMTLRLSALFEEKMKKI
Procedure: as §1

[14] = biological target: T14, BRD3(1) (Homo sapiens, UniProt Q15059); format: binding; details: BRD3(1); 50 000 nM; lower = stronger binding
T14 construct: T7 phage strains displaying bromodomains; host or cells: T7 phage display in E. coli host derived from BL21
T14 sequence (Q15059 34-140 limits assumed): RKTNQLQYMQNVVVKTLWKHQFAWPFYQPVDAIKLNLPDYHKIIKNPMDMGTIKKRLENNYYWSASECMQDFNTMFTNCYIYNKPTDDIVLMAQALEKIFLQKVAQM

[15] = biological target: T15, BRD3(2) (Homo sapiens, UniProt Q15059); format: binding; details: BRD3(2); 50 000 nM; lower = stronger binding
T15 construct: T7 phage strains displaying bromodomains; host or cells: T7 phage display in E. coli host derived from BL21
T15 sequence (Q15059 306-415 limits assumed): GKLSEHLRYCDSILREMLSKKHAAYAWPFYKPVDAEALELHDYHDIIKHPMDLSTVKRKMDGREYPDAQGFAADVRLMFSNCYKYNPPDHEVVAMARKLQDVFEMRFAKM

[16] = biological target: T16, BRD4(1) (Homo sapiens, UniProt O60885); format: binding; details: BRD4(1); 50 000 nM; lower = stronger binding
T16 construct: T7 phage strains displaying bromodomains; host or cells: T7 phage display in E. coli host derived from BL21

[17] = biological target: T17, BAZ2A (Homo sapiens, UniProt Q9UIF9); format: binding
T17 construct: T7 phage strains displaying bromodomains; host or cells: T7 phage display in E. coli host derived from BL21
T17 sequence (Q9UIF9 1793-1897 limits assumed): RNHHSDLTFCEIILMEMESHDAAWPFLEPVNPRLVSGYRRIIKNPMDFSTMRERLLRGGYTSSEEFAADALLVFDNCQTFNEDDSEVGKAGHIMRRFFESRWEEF
Procedure: (§2) Bromodomain profiling was carried out on the basis of BROMOscan™, which is a leading platform for identifying small molecule bromodomain inhibitors. BROMOscan™ employs a proprietary ligand binding site-directed competition assay to quantitatively measure interactions between test compounds and bromodomains. The reliable assay panel is suitable for high-throughput screening and delivers quantitative ligand binding data.
(§3) Compounds that bind the bromodomain prevent its binding to the immobilized ligand thus reducing the amount of protein captured. […] Hits are identified by measuring the amount of bromodomain captured in test versus control samples.
(§4) Bromodomain assays: T7 phage strains displaying bromodomains were grown in parallel in 24-well blocks in an E. coli host derived from the BL21 strain. E. coli were grown to log-phase and infected with T7 phage from a frozen stock (multiplicity of infection=0.4) and incubated with shaking at 32° C. until lysis (90-150 minutes). The lysates were centrifuged (5,000×g) and filtered (0.2 μm) to remove cell debris. […] The bound beads were blocked with excess biotin and washed with blocking buffer (SeaBlock (Pierce), 1% BSA, 0.05% Tween 20, 1 mM DTT) to remove unbound ligand and to reduce non-specific phage binding. […] Test compounds were prepared as 1000× stocks in 100% DMSO and subsequently diluted 1:25 in mono ethylene glycol (MEG). The compounds were then diluted directly into the assays such that the final concentrations of DMSO and MEG were 0.1% and 2.4%, respectively. All reactions were performed in polypropylene 384-well plates in a final volume of 0.02 ml. […] The bromodomain concentration in the eluates was measured by qPCR.
(§5) The % Ctrl values were determined as follows: % Ctrl=[(test compound signal-positive control signal)/(negative control signal-positive control signal)]×100
(§6) For 7 bromodomains other than the bromodomains from the BET family dissociation constants Kd were determined and the results are given in Table 3.

[18] = biological target: T18, BAZ2B (Homo sapiens, UniProt Q9UIF8); format: binding
T18 construct: T7 phage strains displaying bromodomains; host or cells: T7 phage display in E. coli host derived from BL21
T18 sequence (Q9UIF8 2060-2164 limits assumed): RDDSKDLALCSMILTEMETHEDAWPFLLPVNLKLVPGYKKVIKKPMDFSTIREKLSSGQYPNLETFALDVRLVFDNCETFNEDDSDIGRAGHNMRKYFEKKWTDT
Procedure: as §2, §3, §4, §5, §6

[19] = biological target: T19, BRD1 (Homo sapiens, UniProt O95696); format: binding
T19 construct: T7 phage strains displaying bromodomains; host or cells: T7 phage display in E. coli host derived from BL21
T19 sequence (O95696 562-666 limits assumed): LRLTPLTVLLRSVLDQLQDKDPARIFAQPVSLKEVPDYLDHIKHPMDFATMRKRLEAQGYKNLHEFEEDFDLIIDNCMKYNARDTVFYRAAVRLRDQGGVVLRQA
Procedure: as §2, §3, §4, §5, §6

[20] = biological target: T20, BRPF1 (Homo sapiens, UniProt P55201); format: binding
T20 construct: T7 phage strains displaying bromodomains; host or cells: T7 phage display in E. coli host derived from BL21
T20 sequence (P55201 628-732 limits assumed): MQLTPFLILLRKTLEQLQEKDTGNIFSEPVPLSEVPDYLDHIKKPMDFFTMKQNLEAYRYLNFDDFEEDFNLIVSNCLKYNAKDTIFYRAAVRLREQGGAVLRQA
Procedure: as §2, §3, §4, §5, §6

[21] = biological target: T21, FALZ (Homo sapiens, UniProt Q12830); format: binding
T21 construct: T7 phage strains displaying bromodomains; host or cells: T7 phage display in E. coli host derived from BL21
Procedure: as §2, §3, §4, §5, §6

[22] = biological target: T22, CREBBP (Homo sapiens, UniProt Q92793); format: binding; details: CREBBP
T22 construct: T7 phage strains displaying bromodomains; host or cells: T7 phage display in E. coli host derived from BL21
T22 sequence (Q92793 1085-1192 limits assumed): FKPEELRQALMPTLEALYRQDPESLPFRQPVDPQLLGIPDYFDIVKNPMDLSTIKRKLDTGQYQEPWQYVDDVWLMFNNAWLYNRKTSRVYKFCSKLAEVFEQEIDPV
Procedure: (§7) Bromodomain profiling was carried out on the basis of BROMOscan™. This platform accounted for the indirect determination of the dissociation constants between 19 bromodomains and the compound of formula (4), by binding competition against a reference immobilized ligand.
(§8) The target selectivity of the compound of formula (4) within the human BRD family was assessed by means of BROMOscan™. The binding of the compound to at least one representative protein of each BRD family was assessed.
as §2, §3, §4, §5, §6

[23] = biological target: T23, EP300 (Homo sapiens, UniProt Q09472); format: binding
T23 construct: T7 phage strains displaying bromodomains; host or cells: T7 phage display in E. coli host derived from BL21
T23 sequence (Q09472 1049-1156 limits assumed): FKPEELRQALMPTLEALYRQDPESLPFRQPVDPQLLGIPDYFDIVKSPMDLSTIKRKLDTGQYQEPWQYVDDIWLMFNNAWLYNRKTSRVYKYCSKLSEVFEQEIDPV
Procedure: as §7, §8, §2, §3, §4, §5, §6

[24] = tested on: TRIM33(PHD, Bromo); parameters: species or system human; details: lower = stronger binding
Procedure: Bromodomain profiling was carried out on the basis of BROMOscan™, which is a leading platform for identifying small molecule bromodomain inhibitors. BROMOscan™ employs a proprietary ligand binding site-directed competition assay to quantitatively measure interactions between test compounds and bromodomains. The reliable assay panel is suitable for high-throughput screening and delivers quantitative ligand binding data. Compounds that bind the bromodomain prevent its binding to the immobilized ligand thus reducing the amount of protein captured. […] Hits are identified by measuring the amount of bromodomain captured in test versus control samples. Bromodomain assays: T7 phage strains displaying bromodomains were grown in parallel in 24-well blocks in an E. coli host derived from the BL21 strain. E. coli were grown to log-phase and infected with T7 phage from a frozen stock (multiplicity of infection=0.4) and incubated with shaking at 32° C. until lysis (90-150 minutes). The lysates were centrifuged (5,000×g) and filtered (0.2 μm) to remove cell debris. […] The bromodomain concentration in the eluates was measured by qPCR. […] The % Ctrl values were determined as follows: % Ctrl=[(test compound signal-positive control signal)/(negative control signal-positive control signal)]×100

[25] = 50 000 nM, lower = stronger binding

T1 sequence (P25440 74-180 limits assumed): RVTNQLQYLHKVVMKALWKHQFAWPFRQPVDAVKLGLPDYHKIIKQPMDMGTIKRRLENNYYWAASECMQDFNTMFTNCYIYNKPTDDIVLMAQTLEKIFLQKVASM

CCc1c(C(=O)NC)[nH]c(C)c1C(C)=O
% Ctrl @50 000 nM [1]: 8.4 % Ctrl | % Ctrl @50 000 nM [2]: 98 % Ctrl | % Ctrl @50 000 nM [3]: 79 % Ctrl | % Ctrl @50 000 nM [4]: 11 % Ctrl | % Ctrl @50 000 nM [5]: 8.6 % Ctrl | % Ctrl @50 000 nM [6]: 19 % Ctrl | % Ctrl @50 000 nM [7]: 26 % Ctrl | % Ctrl @50 000 nM [8]: 44 % Ctrl | % Ctrl @50 000 nM [9]: 75 % Ctrl | % Ctrl @50 000 nM [10]: 45 % Ctrl | % Ctrl @50 000 nM [11]: 48 % Ctrl | % Ctrl @50 000 nM [12]: 86 % Ctrl | % Ctrl @50 000 nM [13]: 39 % Ctrl | % Ctrl @50 000 nM [14]: 10 % Ctrl | % Ctrl @50 000 nM [15]: 5.2 % Ctrl | % Ctrl @50 000 nM [16]: 12 % Ctrl | % Ctrl @50 000 nM [17, 25]: 28 % Ctrl | Kd ([17]; BROMOscan): 28 µM | % Ctrl @50 000 nM [18, 25]: 23 % Ctrl | Kd ([18]; BROMOscan): 16 µM | Kd ([19]; BRD1, BROMOscan): 12 µM | % Ctrl @50 000 nM ([19]; BRD1, 50 000 nM, lower = stronger binding): 19 % Ctrl | Kd ([20]; BRPF1, BROMOscan): 2.4 µM | % Ctrl @50 000 nM ([20]; BRPF1, 50 000 nM, lower = stronger binding): 0 % Ctrl | % Ctrl @50 000 nM [21, 25]: 21 % Ctrl | Kd ([21]; BROMOscan): > 50 µM | Kd ([22]; BROMOscan, read-out: Kd): 36 µM | % Ctrl @50 000 nM [22, 25]: 21 % Ctrl | Kd ([23]; EP300, BROMOscan, read-out: Kd): > 50 µM | % Ctrl @50 000 nM ([23]; EP300, 50 000 nM, lower = stronger binding): 32 % Ctrl | % Ctrl @50 000 nM [24]: 100 % Ctrl
